Measurements as given in patent US5750648A, “Retroviral protease inhibitors and combinations thereof” (G.D. Searle & Co., priority 1994, dated 1998).

Biological target: HIV protease (Human immunodeficiency virus type 1 group M subtype B, UniProt P04585)
Assay: HIV protease enzyme assay (fluorescent substrate 2-aminobenzoyl-Ile-Nle-Phe(p-NO2)-Gln-ArgNH2)
Format: biochemical
Details: for IC50: concentration at which the inhibitor reduces enzyme activity by 50%, enzyme about 12.3 nanomolar, substrate about 80 μM, pH 6.4
Description: The compounds of the present invention are advantageously effective HIV protease inhibitors. Utilizing an enzyme assay as described below, the compounds set forth in the examples herein disclosed inhibited the HIV enzyme. The preferred compounds of the present invention and their calculated IC50 (the concentration at which the inhibitor compound reduces enzyme activity by 50%) values are shown in Table 2.
The enzyme method is as follows. The substrate is 2-aminobenzoyl-Ile-Nle-Phe(p-NO2)-Gln-ArgNH2. The positive control is MVT-101 (Miller, M. et al, Science, 246, 1149 (1989)). The assay buffer is 20 mM sodium phosphate, pH 6.4, 20% glycerol, 1 mM EDTA, 1 mM DTT and 0.1% CHAPS. The substrate is dissolved in DMSO, then diluted 10 fold in assay buffer. Final substrate concentration in the assay is about 80 μM. HIV protease is diluted in the assay buffer to a final enzyme concentration of about 12.3 nanomolar, based on a molecular weight of 10,780.
The final concentration of DMSO is about 14% and the final concentration of glycerol is about 18%. The test compound is dissolved in DMSO and diluted in DMSO to ten times (10×) the test concentration. Ten microliters (10 μL) of the enzyme preparation is added, the materials mixed and then the mixture is incubated at ambient temperature for 15 minutes. The enzyme reaction is initiated by the addition of 40 μL of substrate. The increase in fluorescence is monitored at 4 time points (0, 8, 16 and 24 minutes) at ambient temperature. Each assay is carried out in duplicate wells.

Structure (SMILES)	IC50 [nM]	inhibition at 10 µM (@ 10 μM, read-out: inhibition of HIV protease (IC50)) [%]
CNCC(=O)N[C@H](C(=O)N[C@@H](Cc1ccccc1)[C@H](O)CN(CCC(C)C)C(=O)NC(C)(C)C)C(C)(C)SC [5 (Part I), (2R, 3S)-3-(N-methylaminoacetyl-S-methyl-L-penicillaminyl)amido-1-[N-isoamyl-N-(tert-butylcarbamoyl)]amino-4-phenyl-2-butanol]	14	
CC(C)CCN(C[C@@H](O)[C@H](Cc1ccccc1)NC(=O)[C@@H](NC(=O)[C@@H](C)N(C)C(=O)OCc1ccccc1)C(C)(C)C)C(=O)NC(C)(C)C [Example 15, (2R, 3S)-3-(N-benzyloxycarbonyl-N-methyl-D-alaninyl-L-tert-butylglycinyl)amino-1-[N-isoamyl-N-(tert-butylcarbamoyl)]amino-4-phenyl-2-butanol]	70	
CC(C)CCN(C[C@@H](O)[C@H](Cc1ccccc1)NC(=O)[C@@H](NC(=O)CNC(=O)OC(C)(C)C)C(C)(C)C)C(=O)NC(C)(C)C [Example 17, (2R, 3S)-3-(N-tert-butoxycarbonyl-glycinyl-L-tert-butylglycinyl) amino-1-[N-isoamyl-N-(tert-butylcarbamoyl)]amino-4-phenyl-2-butanol]	10	
CC(C)CCN(C[C@@H](O)[C@H](Cc1ccccc1)NC(=O)[C@@H](NC(=O)[C@@H]1CCCN1C(=O)OCc1ccccc1)C(C)(C)C)C(=O)NC(C)(C)C [Example 19, (2R, 3S)-3-(N-benzyloxycarbonyl-L-prolyl-L-tert-butylglycinyl) amino-1-[N-isoamyl-N-(tert-butylcarbamoyl)]amino-4-phenyl-2-butanol]	2200	
CC(C)CCN(C[C@@H](O)[C@H](Cc1ccccc1)NC(=O)[C@@H](NC(=O)[C@@H]1CCCN1)C(C)(C)C)C(=O)NC(C)(C)C [Example 20, (2R, 3S)-3-(L-prolyl-L-tert-butylglycinyl)amino-1-[N-isoamyl-N-(tert-butylcarbamoyl)]amino-4-phenyl-2-butanol]	9	
CC(C)CCN(C[C@@H](O)[C@H](Cc1ccccc1)NC(=O)[C@@H](NC(=O)[C@@H]1CCCN1C(=O)OC(C)(C)C)C(C)(C)C)C(=O)NC(C)(C)C [Example 21, (2R, 3S)-3-(N-tert-butoxycarbonyl-L-prolyl-L-tert-butylglycinyl) amino-1-[N-isoamyl-N-(tert-butylcarbamoyl)]amino-4-phenyl-2-butanol]		61

More lines, main results first:

IC50 [nM]	Structure (SMILES)	inhibition at 10 µM (@ 10 μM, read-out: inhibition of HIV protease (IC50)) [%]
370	CC[C@H](C)[C@H](NC(=O)[C@@H](C)N(C)C(=O)OCc1ccccc1)C(=O)N[C@@H](Cc1ccccc1)[C@H](O)CN(CCC(C)C)C(=O)NC(C)(C)C [Example 22, (2R, 3S)-3-(N-benzyloxycarbonyl-N-methyl-D-alaninyl-L-isoleucinyl)amino-1-[N-isoamyl-N-(tert-butylcarbamoyl)]amino-4-phenyl-2-butanol]	
79	CC[C@H](C)[C@H](NC(=O)[C@@H](C)NC)C(=O)N[C@@H](Cc1ccccc1)[C@H](O)CN(CCC(C)C)C(=O)NC(C)(C)C [Example 23, (2R, 3S)-3-(N-methyl-D-alaninyl-L-isoleucinyl)amino-1-[N-isoamyl-N-(tert-butylcarbamoyl)]amino-4-phenyl-2-butanol]	
520	CC[C@H](C)[C@H](NC(=O)[C@@H]1CCCN1C(=O)OCc1ccccc1)C(=O)N[C@@H](Cc1ccccc1)[C@H](O)CN(CCC(C)C)C(=O)NC(C)(C)C [Example 24, (2R, 3S)-3-(N-benzyloxycarbonyl-L-prolyl-L-isoleucinyl)amino-1-[N-isoamyl-N-(tert-butylcarbamoyl)]amino-4-phenyl-2-butanol]	
51	CC[C@H](C)[C@H](NC(=O)[C@@H]1CCCN1)C(=O)N[C@@H](Cc1ccccc1)[C@H](O)CN(CCC(C)C)C(=O)NC(C)(C)C [Example 25, (2R, 3S)-3-(L-prolyl-L-isoleucinyl)amino-1-[N-isoamyl-N-(tert-butylcarbamoyl)]amino-4-phenyl-2-butanol]	
